From paper PMC8504577, “Evaluation of a Clinically Relevant Drug–Drug Interaction Between Rosuvastatin and Clopidogrel and the Risk of Hepatotoxicity” (Frontiers in Pharmacology, 2021)
Values joined by “and” are separate entries in the source; they are usually repeats but may differ in a detail not shown here. Identical values can stand only once. “Also recorded” adds a separate entry of the source. Like-named read-outs stand apart in the source and are kept apart here.

How the values were obtained:
[1] = system: human primary hepatocytes
Description: (§1) Cytotoxicity was determined with MTT assay in cryopreserved human hepatocytes. Thawing and plating of cryopreserved hepatocytes were carried out according to the manufacturer’s protocol. Primary human hepatocytes at a density of 7×10^4 cells/well were cultured for 24 h after plating in 96-well collagen-coated plates. Then, the hepatocytes were treated with varying concentrations of RSV, CP, RSV plus CP, or tamoxifen and incubated for 24 or 96 h at 37°C. 11 μL of 5 mg/ml MTT was added to each well of the plate, and then the plate was incubated at 37°C for 3–4 h. After the medium was aspirated, 150 μL of DMSO was added to dissolve the formazan. The absorbance at 570 nm was measured and corrected for background absorption at 690 nm using a SpectraMax® i3 plate reader (Molecular Devices, Silicon Valley, CA, United States). AST and LDH levels in the medium of parallel processed plates were measured by commercially available assay kits. […] All experiments were performed in triplicate.
A Shimadzu LC-20AD liquid chromatography system (Shimadzu, Kyoto, Japan) and an API5000 triple quadrupole tandem mass spectrometer (Applied Biosystems/Sciex, Framingham, MA, United States) coupled with an electrospray ionization (ESI) source was used for the determination of in vitro samples. Chromatographic separation was conducted with gradient elution on a Synergi Hydro-RP column (30 × 2.0 mm, 4 μm, Phenomenex, Torrance, CA, United States). […] The mobile phase consisted of methanol (A) and water (B), both containing 0.1% (V/V) formic acid. The flow rate was 0.5 ml/min and the gradient elution was run using the following program: 0.01 min (15% A)-1.0 min (95% A), 1.5 min (95% A)-1.51 min (15% A), 2.5 min (stop).

[2] = system: human primary hepatocytes; assay: Cytotoxicity (MTT, AST, LDH) in cryopreserved human hepatocytes; type: cell-based
Description: as §1, with “Primary human hepatocytes at a density of 7×10^4 cells/well were cultured for 24 h after plating in 96-well collagen-coated plates. Then, the hepatocytes were treated with varying concentrations of RSV, CP, RSV plus CP, or tamoxifen and incubated for 24 or 96 h at 37°C.” left out

[3] = Plasma pharmacokinetic study in rats
Description: For the plasma pharmacokinetic study, 16 rats were randomly assigned into four groups (n = 4, each group, groups I to IV) and received oral (p.o.) administrations as oral gavage of CP (27 mg/kg) or the same volume of vehicle control for 20 days. Then, the rats were made to fast overnight before dosing but with free access to water. On day 21, rats in group I were treated with a p.o. dose as oral gavage of CP at 27 mg/kg and a single intravenous (i.v.) dose of RSV at 5 mg/kg. Rats in group II were treated with a p.o. dose as oral gavage of vehicle control and a single i.v. dose of RSV at 5 mg/kg. Rats in group Ⅲ were treated with a p.o. dose as oral gavage of CP at 27 mg/kg and a p.o. dose as oral gavage of RSV at 5 mg/kg. Rats in group Ⅳ were treated with a p.o. dose as oral gavage of vehicle control and a p.o. dose as oral gavage of RSV at 5 mg/kg. Blood samples (0.15 ml) were collected at 0, 1, 2, 5, 15, 30, 60, 120, 180, 360, 480, 600, and 720 min after administration of the i.v. dose of the RSV group and at 0, 5, 30, 60, 120, 180, 360, 480, 600, and 720 min for the p.o. dose as oral gavage of the RSV group. After each sampling, a volume of 0.15 ml physiologic saline solutions was administered to sustain isotonic fluid balance. Plasma samples were harvested by using a centrifuge and then stored at −80°C until analysis by LC-MS/MS.
A Shimadzu LC-30AD liquid chromatography system (Shimadzu, Kyoto, Japan) and an API4000 triple quadruple tandem mass spectrometer (Applied Biosystems/Sciex, Framingham, MA, United States) coupled with an ESI source was used for the LC-MS/MS analysis of in vivo samples. The separation was carried out on an Agilent Extend C18 column (1.8 µm, 4.6 mm × 30 mm, Agilent Technologies). The mobile phase consisting of acetonitrile (A) and water (B: 1 mM ammonium acetate and 1% (V/V) formic acid). […] The flow rate was 1 ml/min and the gradient elution method was as follows: 0.01 min (10% A)-0.4 min (10% A), 0.8 min (95% A)-2.0 min (95% A), and 2.3 min (10% A)-2.5 min (stop).
Phoenix WinNonlin® 7.1 (Pharsight Corporation, Mountain View, CA, United States) was used to calculate the pharmacokinetic parameters by the noncompartmental method. IC50 values were obtained by a computer-generated nonlinear least squares fit using GraphPad Prism 8.1 (GraphPad Software, San Diego, CA, United States). Statistical analysis was performed using SPSS ver. 22.0 (IBM, Chicago, IL, United States). The results are presented as mean ± S.D., unless otherwise stated. After testing for the homogeneity of variance, statistical analysis was performed with a one-way ANOVA followed by the LSD post hoc test or unpaired Student’s t-test. A probability (p) of less than 0.05, 0.01, and 0.001 was considered to be statistically significant, highly significant, and extremely significant, respectively.

[4] = for I2, maximal theoretical gastrointestinal concentration: dose/250 ml; for Imax,u, unbound steady-state plasma peak concentration: fu×I1
[5] = 96 h co-exposure with 100 µM CP vs without CP
[6] = rats, p.o. RSV (group III vs IV)
[7] = rats, p.o. RSV (group III vs IV), not significant

## COC(=O)[C@H](c1ccccc1Cl)N1CCc2sccc2C1 [CP, clopidogrel]
[1]; human
  Free medium concentration: 0.026 to 0.40 nM
[2]; 24 and 96 h incubation
  Cytotoxicity (MTT): no effect on cell viability; also recorded: did not show hepatotoxic effects
[2]; 96 h, presence of 100 µM CP
  AST level in medium: trend of increase
  LDH level in medium: missed statistical significance
[3]; rats, after 8 h post-dosing
  Plasma concentration: undetectable
[4]; 75 mg CP
  Iin,max,u, steady-state unbound liver inlet concentration: 0.31 µM
  I2, maximal theoretical gastrointestinal concentration: 932.19 µM
  Imax,u, unbound steady-state plasma peak concentration: 0.00002 µM
[4]; 300 mg CP
  Iin,max,u, steady-state unbound liver inlet concentration: 1.24 µM
  I2, maximal theoretical gastrointestinal concentration: 3,728.77 μM
  Imax,u, unbound steady-state plasma peak concentration: 0.00018 µM

## CC(C)c1nc(N(C)S(C)(=O)=O)nc(-c2ccc(F)cc2)c1/C=C/[C@@H](O)C[C@@H](O)CC(=O)O [RSV, rosuvastatin]
[1]; [5]
  Cell to medium concentration ratio of RSV: significantly increased; also recorded: significantly enhanced
  Intracellular concentration of RSV: significantly increased; also recorded: significantly enhanced
[2]; 96 h, co-incubation with 100 µM CP where combined
  Cytotoxicity (MTT): dose-dependent cytotoxicity
[3]; rat plasma, Group II: single i.v. RSV 5 mg/kg + p.o. vehicle control
  Vss (Vss/F): 1,148.40 ± 701.23 ml/kg
[3]; rats, i.v. RSV
  RSV AUC in presence of CP relative to absence: 1.76 fold
[3]; rats, i.v. RSV (group I vs II)
  Decrease of RSV CL by multiple p.o. doses of CP: 42.62% and 42.6%
  Increase of RSV plasma AUC0-infinity by multiple p.o. doses of CP: 76.29%
  Increase of RSV plasma AUC0–12h by multiple p.o. doses of CP: 75.55%
[3]; rats, i.v. RSV (group I vs II), not significant
  Increase of RSV Cmax by multiple p.o. doses of CP: 110.32%
[3]; rats, p.o. RSV
  RSV AUC in presence of CP relative to absence: 1.87 fold
[3]; [6]
  Decrease of RSV CL by multiple p.o. doses of CP: 43.27% and 43.3%
  Increase of RSV plasma AUC0-infinity by multiple p.o. doses of CP: 87.48%
  Increase of RSV plasma AUC0–12h by multiple p.o. doses of CP: 67.27%
[3]; [7]
  Decrease of RSV Vss by multiple p.o. doses of CP: 49.42%
  Increase of RSV Cmax by multiple p.o. doses of CP: 43.90%
[3]; read-out: CL (CL/F), rat plasma, Group II: single i.v. RSV 5 mg/kg + p.o. vehicle control
  clearance: 59.1 mL/min/kg
